The target of experiment [1] is PD-L1 His protein / PD-1 Fc protein (Homo sapiens (Human), UniProt Q9NZQ7). In words: HTRF Assay (PD-1/PD-L1 interaction). Type of experiment: binding. Conditions: PD-L1 His 6 nM, PD-1 Fc 6 nM.
For the next experiment, the target named is human PD-L1 (Homo sapiens (Human), UniProt Q9NZQ7). The experiment in a line: T cell activation luciferase reporter cell culture system (T Cell Activation Assay). The settings on record: luciferase reporter assay; PD-L1 aAPC/CHO-K1 cells with PD-1 effector Jurkat T cells. Type of experiment: cell-based.
In another experiment the test system is HBV-specific T cells. The experiment in a line: HBV-specific T cell reinvigoration in vitro assay using PBMCs from chronic hepatitis B patients. Type of experiment: cell-based, human. Conditions: relative to HBV-specific peptide treatment alone, 24 hours; for Fold Change in IFN-γ Expression of HBV-specific T Cells, Mean ± SD: Mean ± SD of nine chronic hepatitis B donors. The procedure:
In one aspect, this assay measures the ability of a PD-L1 inhibitor to increase HBV specific T cell activity in an infected subject, as measured by the increase in interferon-gamma expression by those T cells.
The ability of PD-L1 inhibitor compounds to reinvigorate HBV-specific T cell activity was assessed as described. PBMCs from nine chronic hepatitis B patients were obtained by Ficoll separation of fresh whole blood and frozen in liquid nitrogen as described previously (Park et al., Nature Communications, 2021; 12:1222). Frozen PBMCs were thawed and plated into 12-well plates at 2×10^6 cells/ml. PBMCs were rested overnight at 37° C. before they were stimulated with HBV-specific peptide pools and allowed to proliferate for 5 days. Expanded PBMCs were then restimulated with HBV-specific peptide pools alone or stimulated with HBV-specific peptide pools and incubated with compounds 89, 90, and 139, a negative control, or anti-PD-L1 antibody as reference. Supernatant was obtained after 24 hours and assayed for IFN-γ using the Luminex platform. Fold change increase in IFN-γ expression mediated by compound treatment relative to HBV-specific peptide treatment alone was determined (Table 3).

Experiment [2] relates to MC38 tumors expressing human PD-L1. In words: In vivo anti-tumor efficacy in humanized PD-L1 and PD-1 expressing MC38 tumor mouse model. The settings on record: oral gavage once daily. The procedure:
In one aspect, this assay measures the ability of a PD-L1 inhibitor to reduce the size of MC38 (a murine colon adenocarcinoma cell line) tumors in mice, as an indication of the PD-L1 inhibitor's ability to help treat, ameliorate, and/or prevent cancer in the subject.
In vivo anti-tumor efficacy of compounds was evaluated in mice expressing humanized PD-1 and PD-L1, in which the extracellular domains of murine PD-1 and PD-L1 were genetically replaced with the human extracellular domain counterparts (Huang et al., Scientific Reports, 2017; 7:42687). Humanized PD-1/PD-L1 (hPD-1/hPD-L1) mice were subcutaneously implanted with the colorectal cancer cell line MC38 expressing human PD-L1 and compound treatment initiated when tumor volumes reached approximately 100 mm^3. Compounds were administered via oral gavage once daily at: 30 mg/kg between study days 1 and 7; or 10 mg/kg for 28 days. The anti-PD-L1 monoclonal antibody atezolizumab was included as a positive reference control and administered via intraperitoneal injection at 0.3 mg/kg thrice weekly between study days 1 and 15. Tumor lengths and widths were measured by digital caliper and tumor volumes were calculated by the formula: […].

Experimental findings from patent US20240246964A1 (Arbutus Biopharma Corporation, priority 2021, published 2024) are described below.

Molecules are shown by their SMILES.

Sequence of human PD-L1 (Q9NZQ7 19-290): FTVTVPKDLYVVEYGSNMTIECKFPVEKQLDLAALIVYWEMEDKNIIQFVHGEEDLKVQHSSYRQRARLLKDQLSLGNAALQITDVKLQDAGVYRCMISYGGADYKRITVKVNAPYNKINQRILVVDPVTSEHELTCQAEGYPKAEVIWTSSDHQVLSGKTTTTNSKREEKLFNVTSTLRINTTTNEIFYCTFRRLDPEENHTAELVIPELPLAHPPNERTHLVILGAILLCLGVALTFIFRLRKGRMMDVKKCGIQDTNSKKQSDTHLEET
Sequence of PD-L1 His protein / PD-1 Fc protein (Q9NZQ7 19-238): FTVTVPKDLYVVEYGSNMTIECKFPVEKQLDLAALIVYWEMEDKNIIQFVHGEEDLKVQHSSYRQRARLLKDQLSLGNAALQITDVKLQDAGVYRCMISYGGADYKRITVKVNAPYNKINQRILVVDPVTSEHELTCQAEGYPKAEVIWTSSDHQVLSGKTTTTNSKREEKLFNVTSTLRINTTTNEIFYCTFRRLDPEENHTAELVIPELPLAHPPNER

With `COc1cc(-c2nccc(-c3cccc(-c4ccc(CN5CC6(CNC(=O)C6)C5)c(OC)n4)c3Cl)c2Cl)ccc1CN1CC2(CNC(=O)C2)C1` [Compound 89, 2-(4-(3-chloro-4-(2-chloro-3-(6-methoxy-5-((7-oxo-2,6-diazaspiro[3.4]octan-2-yl)methyl)pyridin-2-yl)phenyl)pyridin-2-yl)-2-methoxybenzyl)-2,6-diazaspiro[3.4]octan-7-one], the half-maximal inhibitory concentration (IC50) in experiment [1] was found to be 0.5 nM. The same molecule had an EC50 at human PD-L1 of 16.5 nM. The “Fold Change in IFN-γ Expression of HBV-specific T Cells” value in the experiment on HBV-specific T cells (Chronic Hepatitis B Donor 1) is 2.0 Fold Change; in the experiment on HBV-specific T cells (Chronic Hepatitis B Donor 2), 2.0 Fold Change; in the experiment on HBV-specific T cells (Chronic Hepatitis B Donor 3) it was 1.5 Fold Change; in the experiment on HBV-specific T cells (Chronic Hepatitis B Donor 4) it was 3.7 Fold Change; with HBV-specific T cells (Chronic Hepatitis B Donor 5), 1.5 Fold Change; in the experiment with HBV-specific T cells (Chronic Hepatitis B Donor 6), 2.7 Fold Change. The “Fold Change in IFN-γ Expression of HBV-specific T Cells” value with HBV-specific T cells (Chronic Hepatitis B Donor 7) was determined as 1.3 Fold Change; in the experiment with HBV-specific T cells (Chronic Hepatitis B Donor 8), 2.2 Fold Change; in the experiment on HBV-specific T cells (Chronic Hepatitis B Donor 9), 1.5 Fold Change. Besides, the “Fold Change in IFN-γ Expression of HBV-specific T Cells, Mean ± SD” value in the experiment on HBV-specific T cells turned out to be 2.0 ± 0.8 Fold Change. In addition, the “Tumor Volume (group mean)” value in experiment [2] (10 mg/kg × 28 days, study day 2) was found to be 122 mm^3; in experiment [2] (10 mg/kg × 28 days, study day 5), 170 mm^3; in experiment [2] (10 mg/kg × 28 days, study day 9), 227 mm^3; in experiment [2] (10 mg/kg × 28 days, study day 12), 223 mm^3; in experiment [2] (10 mg/kg × 28 days, study day 16) it was 222 mm^3; in experiment [2] (10 mg/kg × 28 days, study day 19) it was 252 mm^3. The “Tumor Volume (group mean)” value in experiment [2] (10 mg/kg × 28 days, study day 23) turned out to be 279 mm^3; in experiment [2] (10 mg/kg × 28 days, study day 26), 328 mm^3; in experiment [2] (10 mg/kg × 28 days, study day 28), 346 mm^3; in experiment [2] (10 mg/kg × 28 days, study day −1), 105 mm^3; in experiment [2] (30 mg/kg × 7 days, study day 2), 116 mm^3; in experiment [2] (30 mg/kg × 7 days, study day 5), 164 mm^3. The “Tumor Volume (group mean)” value in experiment [2] (30 mg/kg × 7 days, study day 9) is given as 176 mm^3; in experiment [2] (30 mg/kg × 7 days, study day 12), 212 mm^3; in experiment [2] (30 mg/kg × 7 days, study day 16), 243 mm^3; in experiment [2] (30 mg/kg × 7 days, study day 19), 310 mm^3; in experiment [2] (30 mg/kg × 7 days, study day 23), 418 mm^3; in experiment [2] (30 mg/kg × 7 days, study day 26), 564 mm^3. For the same molecule, the “Tumor Volume (group mean)” value in experiment [2] (30 mg/kg × 7 days, study day 28) came out at 607 mm^3; in experiment [2] (30 mg/kg × 7 days, study day −1) it was 105 mm^3.

`COc1cc(-c2nccc(-c3cccc(-c4ccc(CN5CC6(C5)CN(C(C)=O)C6)c(OC)n4)c3Cl)c2Cl)ccc1CN1CC2(C1)CN(C(C)=O)C2` [Compound 90, 1-(6-((6-(3-(2-(4-((6-acetyl-2,6-diazaspiro[3.3]heptan-2-yl)methyl)-3-methoxyphenyl)-3-chloropyridin-4-yl)-2-chlorophenyl)-2-methoxypyridin-3-yl)methyl)-2,6-diazaspiro[3.3]heptan-2-yl)ethan-1-one]: in experiment [1], the IC50 stood at 0.7 nM. Moreover, a half-maximal response at human PD-L1 (EC50) required 58.3 nM. Further, the “Fold Change in IFN-γ Expression of HBV-specific T Cells” value amounted to 1.7 Fold Change in the experiment with HBV-specific T cells (Chronic Hepatitis B Donor 1); 2.2 Fold Change with HBV-specific T cells (Chronic Hepatitis B Donor 2); 1.9 Fold Change with HBV-specific T cells (Chronic Hepatitis B Donor 3); 3.0 Fold Change in the experiment on HBV-specific T cells (Chronic Hepatitis B Donor 4); 1.2 Fold Change in the experiment on HBV-specific T cells (Chronic Hepatitis B Donor 5); 2.5 Fold Change in the experiment on HBV-specific T cells (Chronic Hepatitis B Donor 6). Moreover, the figures for the “Fold Change in IFN-γ Expression of HBV-specific T Cells” value in the experiment with HBV-specific T cells (Chronic Hepatitis B Donor 7), in the experiment on HBV-specific T cells (Chronic Hepatitis B Donor 8) and with HBV-specific T cells (Chronic Hepatitis B Donor 9) were 1.5 Fold Change, 2.1 Fold Change and 1.2 Fold Change, respectively. Further, in the experiment on HBV-specific T cells, the “Fold Change in IFN-γ Expression of HBV-specific T Cells, Mean ± SD” value is listed as 1.9 ± 0.6 Fold Change.
